# According to patent publication US20230141863A1, “Small Molecule Inhibitors Targeting the Sodium Channel Tamoxifen Receptor and Uses Thereof” (Northwestern University, priority 2021, published 2023):
# Experiments:
# [1] = test system: mice with knee hyperalgesia post DMM surgery; settings: 20 mg/kg, ~0.85M, PMID: 29563338; cited from earlier work
# [2] = test system: T1, endogenous voltage-gated sodium channels expressed in murine DRG neurons; assay: Whole cell voltage clamp of endogenous sodium currents (INa) in cultured DRG sensory neurons; assay type: cell-based, mouse; settings: for voltage dependence of INa inhibition (in words): −60 mV versus −100 mV holding potential
# T1 construct: other: waiting for 5 minutes after removal; ND-Tam potency against DRG INa (IC50); other: DRG neurons, −60 mV holding potential; other: 3 μM ND-Tam treatment; other: DR
# Description: FIG. 1. Tamoxifen metabolites inhibit endogenous voltage-gated sodium channels expressed in murine DRG neurons. A) DIC and fluorescence images of voltage clamped DRG neuron isolated and cultured from an Nav1.8-tomato mouse. Continuity with the patched neuron is indicted by the GFP (Alexa Fluor 488 dye 1 nM) loaded into the glass patch electrode. B) Top, exemplar sodium currents (INa) recorded in control saline and two concentrations of N-desmethyl tamoxifen (ND-Tam) from a voltage-clamped DRG neuron. INa was activated by 0.2 Hz train of 50 ms depolarizations to −10 mV from −100 mV holding potential. Bottom, time course of peak INa inhibition during control conditions and after 5 minutes of extracellular ND-Tam treatment. C) Resulting drug concentration-INa inhibition relationship for ND-Tam fit to the Hill equation. Open symbols represent responses from individual cells and filled symbols represent average response per concentration. Error is equal to S.E.M. (n=11) D) A comparison of the percent INa recovery after 3-10 μM ND-Tam or 1 mM carbamazepine (CBZ) inhibition. INa recovery was assessed after 5 minutes in control saline post drug exposure. Fewer INa recovered from ND-Tam exposure compared to CBZ exposure, 14.3±5.4% and 47.2±9.6%, respectively, and was statistically significant (P=0.03). Error is equal to S.E.M. and the number of cells tested per treatment group is indicated within the parentheses.
# Previously, a unique receptor site for tamoxifen analogues within the prokaryotic sodium channel isolated form Magnetococcus marinus (NavMs)^36 (Sula et al) was crystallographically identified. Because drug occupancy of this receptor caused long lasting inhibition of the NavMs INa, the inventors wondered if these properties would translate into effects against sensory neuron Na s which transmit pain signals. Accordingly, =the potency of ND-Tam and 4OH-Tam was tested against endogenously expressed Na s in cultured DRG sensory neurons isolated from Nav1.8-tdTomato mice by conducting whole cell voltage clamp recordings (FIG. 1A, B). Sodium currents were activated by a 0.2 Hz train of −10 mV depolarizations from a holding potential of −100 mV. The externally applied drug effect was determined after three to five minutes of application of each drug concentration (FIG. 1B). […] As discussed in the introduction, total DRG INa is conducted by the Nav1.1, Nav1.6, Nav1.7, Nav1.8 and Nav1.9 subtypes. To determine if there is any specificity in the potency of tamoxifen analogues against Nav subtypes, human orthologues were heterologously expressed in cell lines (HEK and CHO co-expressing hb1 subunits), and conducted voltage-clamp experiments, as previously performed in the DRG neurons.
# Dorsal root ganglia were isolated using a modified version of the previously described protocol (PMID: 26864470). All animal procedures were approved by the Institutional Animal Care and Use Committee at the Feinberg Medical School, Northwestern University. The spinal columns of 4-6-week-old […] or Nav1.8-Tomato mice (Nav1.8-Td) were removed and DRG neurons from all spinal levels were isolated for primary culture (PMID: 33827672, PMID: 31351964). The collected DRGs, containing both neuronal and non-neuronal cells, were acutely dissociated in DMEM with collagenase IV (2 mg/mL) for 30 minutes, followed by papain (25 U/mL) for 30 minutes. The cells were then triturated, filtered through a 40 μm cell strainer to remove non-dissociated cells, and washed with DMEM. The DRGs were resuspended in 70 μL of pre-warmed growth medium (DMEM F12+Glutamax supplemented with 0.5% FBS, 0.5% penicillin/streptomycin, 1% N-2 supplement, and β-NGF ([…]) added on the day of use) and plated on poly-l-lysine (10 mg/mL) and laminin (25 μg/mL) prepared coverslips. The DRGs were incubated at 37° C. for 2-4 hours before more growth medium was added to the wells. […]
# [3] = test system: mice with knee hyperalgesia post DMM surgery; assay: In vivo osteoarthritis pain model (DMM), knee hyperalgesia after intra-articular injection; design: species or system mouse; settings: 50 μM intra-articular, vehicle 0.1% DMSO; for knee hyperalgesia versus vehicle, direct comparison study (in words): 30 minutes after injection; for knee withdrawal threshold versus vehicle control (in words): through 3 hours after injection
# human Nav1.7 = molecular target: T2, human Nav1.7 (Homo sapiens, UniProt Q15858); assay: Voltage clamp of heterologously expressed Nav1.7; assay type: cell-based; settings: Hill fit, printed for ND-Tam and 4OH-Tam together
# T2 construct: expressed in transfected cells; host or cells: HEK cells, transient transfection with lipofectamine
# Description: While no clear drug-receptor interactions were determined within Siteout, the S6 E220 side chains formed hydrogen bond interactions with the ether and amine moieties of the ND-Tam molecules found at Sitein. […] After structural alignment of the crystalized NavMs-Tam complex with the cryo EM Nav1.7+b1+b2 channel coordinates, the S6 side chain hydroxyl in DII (S969) and the carboxyl side chains in DIII (E1458) and DIV (D1761) observed in the human channel were nearly superimposable with E220 of the prokaryotic Nav subunits. In addition, the distances from the drug ether and amines were within acceptable distances (2.8-3.1 Å) for hydrogen bond formation for all three site chains (FIG. 2B). […]
# Plasmids encoding the human version of channels Nav1.1, 1.6, and 1.7 were co-transfected with TRES GFP into HEK cell lines for whole-cell voltage clamp studies (American Type Culture Collection). […] Plasma membrane currents were recorded using borosilicate glass electrodes polished to resistances of […]. Sodium currents conducted by heterologously expressed Navs were recorded using the following solutions (in mM). […] Endogenous DRG sodium currents were recorded using an intracellular solution consisting of 70 CsCl, 70 CsF, 2 EGTA, 5 HEPES, and 5 NaCl; the pH was adjusted to 7.4 with CsOH. […]
# T2 sequence (Q15858 whole entry): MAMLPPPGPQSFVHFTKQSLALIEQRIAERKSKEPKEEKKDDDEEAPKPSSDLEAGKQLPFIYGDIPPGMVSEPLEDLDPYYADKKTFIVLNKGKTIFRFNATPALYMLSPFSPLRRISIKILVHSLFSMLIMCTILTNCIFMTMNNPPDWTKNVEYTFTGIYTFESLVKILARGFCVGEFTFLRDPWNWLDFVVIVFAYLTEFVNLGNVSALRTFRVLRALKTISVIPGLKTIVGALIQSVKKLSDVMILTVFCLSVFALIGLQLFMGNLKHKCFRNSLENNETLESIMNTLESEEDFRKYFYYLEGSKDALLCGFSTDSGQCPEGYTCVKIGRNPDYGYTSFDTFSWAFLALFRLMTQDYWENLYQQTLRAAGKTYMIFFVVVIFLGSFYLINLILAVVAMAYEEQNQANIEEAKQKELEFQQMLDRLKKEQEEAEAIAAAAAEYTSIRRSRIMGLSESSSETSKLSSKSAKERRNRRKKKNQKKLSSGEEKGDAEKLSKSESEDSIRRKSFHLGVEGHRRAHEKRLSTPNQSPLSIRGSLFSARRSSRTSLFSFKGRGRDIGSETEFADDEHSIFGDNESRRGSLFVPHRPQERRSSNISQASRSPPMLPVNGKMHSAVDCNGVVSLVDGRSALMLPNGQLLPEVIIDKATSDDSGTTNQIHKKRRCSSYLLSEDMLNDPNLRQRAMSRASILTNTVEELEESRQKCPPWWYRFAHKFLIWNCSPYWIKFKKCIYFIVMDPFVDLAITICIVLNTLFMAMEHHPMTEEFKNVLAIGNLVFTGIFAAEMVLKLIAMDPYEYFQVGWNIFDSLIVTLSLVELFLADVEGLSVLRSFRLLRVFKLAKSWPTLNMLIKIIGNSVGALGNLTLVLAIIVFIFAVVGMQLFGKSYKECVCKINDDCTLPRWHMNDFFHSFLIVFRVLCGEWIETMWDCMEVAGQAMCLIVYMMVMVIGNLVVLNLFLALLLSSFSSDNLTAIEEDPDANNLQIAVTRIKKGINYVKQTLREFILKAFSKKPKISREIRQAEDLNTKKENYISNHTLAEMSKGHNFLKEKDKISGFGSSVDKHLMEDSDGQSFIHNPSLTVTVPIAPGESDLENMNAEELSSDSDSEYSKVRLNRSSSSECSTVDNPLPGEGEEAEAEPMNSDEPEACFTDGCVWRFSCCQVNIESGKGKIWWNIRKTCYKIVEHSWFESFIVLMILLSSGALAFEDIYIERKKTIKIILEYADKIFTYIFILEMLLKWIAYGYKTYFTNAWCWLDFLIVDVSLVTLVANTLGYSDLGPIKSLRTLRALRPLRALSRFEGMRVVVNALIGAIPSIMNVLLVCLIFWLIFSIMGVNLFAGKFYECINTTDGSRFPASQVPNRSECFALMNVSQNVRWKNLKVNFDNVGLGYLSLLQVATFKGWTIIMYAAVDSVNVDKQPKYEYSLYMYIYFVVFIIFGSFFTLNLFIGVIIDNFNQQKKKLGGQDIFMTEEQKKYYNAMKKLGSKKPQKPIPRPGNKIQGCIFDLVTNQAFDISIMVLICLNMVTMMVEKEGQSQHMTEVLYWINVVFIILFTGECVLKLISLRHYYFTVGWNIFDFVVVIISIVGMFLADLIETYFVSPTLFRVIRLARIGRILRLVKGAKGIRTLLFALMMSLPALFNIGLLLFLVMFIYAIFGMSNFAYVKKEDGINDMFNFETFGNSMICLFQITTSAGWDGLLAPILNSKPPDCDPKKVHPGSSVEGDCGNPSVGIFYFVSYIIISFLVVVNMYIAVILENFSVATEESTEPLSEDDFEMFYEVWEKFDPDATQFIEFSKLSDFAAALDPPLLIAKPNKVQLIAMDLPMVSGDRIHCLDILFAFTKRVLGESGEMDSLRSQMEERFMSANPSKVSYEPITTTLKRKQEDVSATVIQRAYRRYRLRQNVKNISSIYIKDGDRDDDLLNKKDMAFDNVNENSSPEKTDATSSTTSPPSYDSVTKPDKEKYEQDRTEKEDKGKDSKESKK
Structure (SMILES),knee hyperalgesia after local injection of a relatively high dose (in words) [1],voltage dependence of INa inhibition (in words) [2],"knee hyperalgesia versus vehicle, direct comparison study (in words) [3]",knee withdrawal threshold versus vehicle control (in words) [3],slope of concentration-dependence (human Nav1.7),"IC50 ([2]; DRG neurons, −100 mV holding potential, 0.2 Hz train of −10 mV depolarizations, read-out: half maximal potency of INa inhibition (IC50)) [µM]","inhibition of sodium currents recorded from DRG neurons (in words) ([2]; tamoxifen analogs and fragments, FIG. 7B)"
"CCN(CC)CC(=O)Nc1c(C)cccc1C [lidocaine, reference compound]",able to acutely reverse knee hyperalgesia,most potent when membranes were held at −60 mV,effectively inhibited knee hyperalgesia,remained elevated compared to vehicle control through 3 hours after injection,,,
"NC(=O)N1c2ccccc2C=Cc2ccccc21 [CBZ, carbamazepine, reference compound]",,most potent when membranes were held at −60 mV,,,,,
"CC/C(=C(\c1ccc(O)cc1)c1ccc(OCCN(C)C)cc1)c1ccccc1 [4OH-Tam, 4-[(Z)-1-[4-[2-(dimethylamino)ethoxy]phenyl]-2-phenylbut-1-enyl]phenol]",,,,,2.1,3.3,inhibited sodium currents
"C=C(C)[C@@H]1CCC(C)=C[C@H]1c1c(O)cc(CCCCC)cc1O [CBD, cannabidiol, reference compound]",,followed this trend,effectively inhibited knee hyperalgesia,remained elevated compared to vehicle control through 3 hours after injection,,,
